Results published in patent US6603057B1, “Heterogenous and homogeneous mouse variants lacking sno gene” (Japan Science and Technology Corporation, priority 1999, dated 2003).

Tested on: wild type and sno^+/− mice
Test: Tumor susceptibility: survival after weekly carcinogen DMBA treatment
Assay type: in vivo, mouse
Conditions: DMBA weekly to dorsal surface, observation period of 80 days
Experimental: In the next experiment, in order to compare the tumor susceptibility of wild type and sno^+/− mice, the carcinogen 9,10-dimethyl-1,2-benzanthracene (DMBA) was administered every week. […] The major tumor type observed was malignant lymphomas, and fibromas were also found at a lower frequency. Lymphomas in sno^+/− mice were aggressive metastatic malignancies, and generated tumors in the thymus glands [refer to FIGS. 4(b) and (c)]. The fact that these originated from T-cells is due to the tumor cells homogeneously expressing the TCRαβ markers, but not the IgM marker [refer to FIGS. 4(d) and (e)].
DMBA treatments were initiated from the beginning at postnatal day 2-5 and continuing weekly thereafter by administering 50 μl of a solution containing DMBA 1.25 mg per ml acetone to the dorsal surface. Mice were monitored regularly and killed when overall health condition was deteriorated.
At first, 8-10 mice in each cohort were used for collecting histopathological informations, subsequently, the site of tumor and the site of metastatic organ were detected and specified by detailed pathological analysis.

Q: Which survived this treatment (sno^+/− female mice (n=20)) does the source give for `Cc1c2ccccc2c(C)c2c1ccc1ccccc12` [DMBA, 9,10-dimethyl-1,2-benzanthracene] here?
A: Its survived this treatment is 30%.

Q: What about the survived this treatment (sno^+/− male mice (n=20)) of the same compound?
A: The survived this treatment was 50%.

Q: And the “survival under this treatment” value (wild-type mice (n=40))?
A: The value was “most of the wild-type mice (n=40) survived”.
